From PMC9228089, “1,5-Benzothiazepine Derivatives: Green Synthesis, In Silico and In Vitro Evaluation as Anticancer Agents” (Molecules, 2022) come the findings set out here.

The structures appear in SMILES notation.

One series relates to L02. Nature of the series: MTT cytotoxicity assay, embryonic liver cell line (selective toxicity). The format is cell-based. Conditions: for inhibition at 100 µM: L02, human embryonic liver cell line. The method, then:
(§1) HepG-2, and DU-145 human tumor cell lines were grown in DMEM medium supplemented with Glutamax-I and glucose. A pseudo-normal human embryonic liver cell line (L02) was used to study the cytotoxicity of the synthesized compounds. The cell culture medium was supplemented with fetal calf serum (10% v/v), penicillin (100 IU/mL), and streptomycin (100 µg/mL), then preserved at 37 °C.
(§2) A spectrophotometric MTT reagent assay was employed to assess the cytotoxic activity of the synthesized compounds. In brief, the grown cells (approx. 5 × 10^3 count) were placed in each well of a 96-well plate and 100 µL of the culture medium was added along with the synthesized compounds (1–100 µmol/L). The well plate was subjected to incubation for 72 h; later, 10 µL of MTT (5 mg/mL) was added to each well. The well plate was further incubated for 4 h at 37 °C. The resulting insoluble formazan was dissolved by adding sodium dodecyl sulfate (100 µL, 10%) to each well and continuing incubation for an additional 12 h. Later, the 96-well plate was used to measure the absorbance at the 540 nm and 630 nm reference wavelengths using the spectrophotometer. The blank absorbance was treated as a control and the IC50 values were determined by a non-linear regression model with the help of normalized dose-response data acquired via MTT assay.
(In general: Tetrazolium assays rely on reduction of a dye to a coloured formazan, in cell work by metabolically active cells.)

The test system of a further series is DU-145. Put plainly: MTT cytotoxicity assay, prostate cancer cell line. Type of series: cell-based, human. The method, then: as §1, §2
For another series, the system named is Hep G-2. Put plainly: MTT cytotoxicity assay, liver cancer cell line. Type of series: cell-based, human. The method, then: as §1, §2
In a further series the target is GSK-3β (Homo sapiens, UniProt P49841). Nature of the series: GSK-3β inhibitory assay (Kinase-Glo luminescence). Conditions: for inhibition at 50 µM: read-out: % of Inhibition at 50 µM, 50 µM, triplicate. Background: Kinase-Glo measures the ATP left after a reaction by luminescence.
Chain of GSK-3β (P49841 whole entry): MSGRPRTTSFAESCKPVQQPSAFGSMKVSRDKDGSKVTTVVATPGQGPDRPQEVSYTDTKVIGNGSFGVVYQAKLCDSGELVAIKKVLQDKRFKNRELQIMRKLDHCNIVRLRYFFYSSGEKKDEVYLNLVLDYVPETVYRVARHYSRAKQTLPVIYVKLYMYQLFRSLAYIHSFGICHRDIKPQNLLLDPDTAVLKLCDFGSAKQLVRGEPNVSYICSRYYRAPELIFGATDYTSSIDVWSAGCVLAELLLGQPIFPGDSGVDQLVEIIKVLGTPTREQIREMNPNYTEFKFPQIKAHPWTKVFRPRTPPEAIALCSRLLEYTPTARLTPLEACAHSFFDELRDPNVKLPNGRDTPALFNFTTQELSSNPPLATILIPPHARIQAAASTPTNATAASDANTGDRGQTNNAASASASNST

Procedure for GSK-3β: Briefly, the assay procedure was as follows. […] The activity was determined by the difference between total and consumed ATP. The inhibition activity was determined using the maximal activity in the absence of the inhibitor and the maximal inhibition in the presence of the reference drug. IC50 values were determined using the GraphPad Prism 4.0 tool (GraphPad Software Inc., San Diego, CA, USA).

The term inhibition denotes how much of the control response was suppressed. As a reminder, the melting point is the temperature of the solid-liquid transition. The IC50 is the point on the concentration scale where inhibition reaches its midpoint. Turning to `Cc1ccc2c(c1)N=C(c1cc(I)cc(I)c1O)CC(c1ccc(N(C)C)cc1)S2` (stereo not drawn) [2a, 2-(2-(4-(dimethylamino)phenyl)-7-methyl-2,3-dihydrobenzo[b][1,4]thiazepin-4-yl)-4,6-diiodophenol], the melting point is 230 to 232 °C. The compound further displayed an inhibition at 100 µM in the series with L02 of 28.2 ± 1.68%. This compound also displayed an IC50 in the series on DU-145 (Homo sapiens, DU-145, 72 h) of 32.74 ± 0.13 µM. This compound gave a half-inhibitory concentration (IC50) in the series with Hep G-2 (Homo sapiens, HepG2, 72 h) of 7.52 ± 0.13 µM. In addition, on GSK-3β, the inhibition at 50 µM came out at 62.4 ± 2.21%.

With `Cc1ccc2c(c1)N=C(c1cc(C)cc(I)c1O)CC(c1ccc(N(C)C)cc1)S2` (stereo not drawn) [2b, 2-(2-(4-(dimethylamino)phenyl)-7-methyl-2,3-dihydrobenzo[b][1,4]thiazepin-4-yl)-6-iodo-4-methylphenol], the melting point was in the range of 218 to 220 °C. This compound also yielded an inhibition at 100 µM with L02 of 19.6 ± 0.97%. Further, the IC50 with DU-145 (Homo sapiens, DU-145, 72 h) turned out to be 41.34 ± 0.12 µM. In the series on Hep G-2 (Homo sapiens, HepG2, 72 h), this compound came in with an IC50 of 8.26 ± 0.26 µM. In addition, the inhibition at 50 µM on GSK-3β stood at 60.7 ± 2.85%.

`Cc1ccc2c(c1)N=C(c1cc(Cl)cc(Cl)c1O)CC(c1ccc(N(C)C)cc1)S2` (stereo not drawn) [2c, 2,4-dichloro-6-(2-(4-(dimethylamino)phenyl)-7-methyl-2,3-dihydrobenzo[b][1,4]thiazepin-4-yl)phenol]: the melting point lay in the range of 222 to 224 °C. The compound further registered an inhibition at 100 µM with L02 of 19.3 ± 1.25%. The same compound gave a half-maximal inhibitory concentration (IC50) with DU-145 (Homo sapiens, DU-145, 72 h) of 20.45 ± 0.19 µM. Besides, in the series with Hep G-2 (Homo sapiens, HepG2, 72 h), the half-inhibitory concentration (IC50) was determined as 3.29 ± 0.15 µM. For the same compound, on GSK-3β, the inhibition at 50 µM is over 90%.

Compound `Cc1ccc2c(c1)N=C(c1cc(Cl)cc(I)c1O)CC(c1ccc(N(C)C)cc1)S2` (stereo not drawn) [2d, 4-chloro-2-(2-(4-(dimethylamino)phenyl)-7-methyl-2,3-dihydrobenzo[b][1,4]thiazepine-4-yl)-6-iodophenol] gave a melting point of 244 to 246 °C. In the series with L02, this compound displayed an inhibition at 100 µM of 31.4 ± 1.14%. This compound also came in with a half-inhibitory concentration (IC50) in the series with DU-145 (Homo sapiens, DU-145, 72 h) of 36.17 ± 0.14 µM. The compound further showed an IC50 with Hep G-2 (Homo sapiens, HepG2, 72 h) of 7.89 ± 0.22 µM. Besides, on GSK-3β, the inhibition at 50 µM came to 61.1 ± 1.98%.

`Cc1ccc2c(c1)N=C(c1cc(C)cc(Br)c1O)CC(c1ccc(N(C)C)cc1)S2` (stereo not drawn) [2e, 2-bromo-6-(2-(4-(dimethylamino)phenyl)-7-methyl-2,3-dihydrobenzo[b][1,4]thiazepine-4-yl)-4-methylphenol] had a melting point of 244 to 246 °C. This compound had an inhibition at 100 µM with L02 of 52.2 ± 1.42%. Besides, in the series on DU-145 (Homo sapiens, DU-145, 72 h), the concentration for half-maximal inhibition (IC50) stood at 37.52 ± 0.27 µM. For the same compound, half-maximal inhibition in the series with Hep G-2 (Homo sapiens, HepG2, 72 h) (IC50) required 6.87 ± 0.15 µM. The inhibition at 50 µM on GSK-3β was 66.6 ± 2.51%.

Consider `Cc1ccc2c(c1)N=C(c1cc(Cl)cc(Br)c1O)CC(c1ccc(N(C)C)cc1)S2` (stereo not drawn) [2f, 2-bromo-4-chloro-6-(2-(4-(dimethylamino)phenyl)-7-methyl-2,3-dihydrobenzo [b][1,4]thiazepin-4-yl)phenol], for which the melting point lay in the range of 244 to 246 °C. In the series on L02, this compound had an inhibition at 100 µM of 28.4 ± 1.18%. This compound had an IC50 in the series with DU-145 (Homo sapiens, DU-145, 72 h) of 24.58 ± 0.13 µM. In the series with Hep G-2 (Homo sapiens, HepG2, 72 h), this compound registered a concentration for half-maximal inhibition (IC50) of 4.38 ± 0.11 µM. Moreover, the inhibition at 50 µM at GSK-3β stood at 89.7 ± 1.65%.

`Cc1ccc2c(c1)N=C(c1cc(Br)cc(Br)c1O)CC(c1ccc(N(C)C)cc1)S2` (stereo not drawn) [2g, 2,4-dibromo-6-(2-(4-(dimethylamino)phenyl)-7-methyl-2,3-dihydrobenzo[b][1,4]hiazepine-4-yl)phenol]: the “% Inhibition (100 µM) L02” value in the series with L02 (human embryonic liver cell line) is listed as 15.56 ± 1.29%. Besides, the values for the half-inhibitory concentration (IC50) in the series on DU-145 (72 h) and in the series on Hep G-2 (72 h) were 28.53 ± 0.14 µM and 8.32 ± 0.16 µM, respectively. Besides, at GSK-3β, the “% of Inhibition at 50 µM” value stood at 87.62 ± 2.54%.

In turn, `Cc1ccc2c(c1)N=C(c1cc(Br)cc(I)c1O)CC(c1ccc(N(C)C)cc1)S2` (stereo not drawn) [2h, 4-bromo-2-(2-(4-(dimethylamino)phenyl)-7-methyl-2,3-dihydrobenzo[b][1,4]thiazepin-4-yl)-6-iodophenol] gave a melting point of 244 to 246 °C. For the same compound, the inhibition at 100 µM in the series on L02 amounted to 46.1 ± 1.05%. This compound also came in with an IC50 in the series with DU-145 (Homo sapiens, DU-145, 72 h) of 36.8 ± 0.18 µM. Also, inhibition in the series on Hep G-2 (Homo sapiens, HepG2, 72 h) was half-maximal at 8.56 ± 0.14 µM (IC50). In addition, the inhibition at 50 µM at GSK-3β was 61.9 ± 3.47%.

Regarding `CN(Cc1cnc2nc(N)nc(N)c2n1)c1ccc(C(=O)N[C@@H](CCC(=O)O)C(=O)O)cc1` [Methotrexate, reference compound], testing at 100 µM with L02 gave an inhibition of 78.2 ± 1.86%. Moreover, the 50% inhibitory concentration (IC50) with DU-145 (Homo sapiens, DU-145, 72 h) was found to be 21.96 ± 0.15 µM; in the series with Hep G-2 (Homo sapiens, HepG2, 72 h), 4.68 ± 0.17 µM.
